The subject of one assay is Streptococcus mutans R9. Description: Minimum inhibitory concentration (MIC), microtitre broth dilution. It is filed as cell-based. The protocol: The minimum inhibitory concentration of an antimicrobial agent (triclosan), and a flavour material or mixture of flavour materials (flavour), was determined by the following method.
A culture of the test strain Streptococcus mutans R9, deposited under the Budapest Treaty with National Collections of Industrial, Food and Marine Bacteria Limited, 23 St Machar Drive, Aberdeen, AB24 3RY, Scotland, UK on 22nd Jan. 2004 and given accession number NCIMB 41209) (may also be obtained from Prof. Philip Marsh, Centre for Applied Microbiology and Research, Salisbury, Wiltshire, SP4 OJG, UK) was grown in 250 ml of PM broth (containing: peptone, 2% w/v; tryptone, 1% w/v; yeast extract, 1% w/v; KCl, 0.25% w/v; of approximately pH 7), anaerobically at 37° C. for 48 hours. The absorbance of the culture at 540 nm (A540) was measured and adjusted if necessary to between 0.2-0.3 by diluting with fresh (i.e. sterile) PM broth. The culture was then diluted in Schaedler Anaerobic Broth (SAB) (Oxoid, Basingstoke, UK) in a ratio of 1 part culture to 25 parts broth to give a stock inoculum culture.
Determination of the MIC of Triclosan Against S. mutans
Triclosan powder was dissolved in AR-grade ethanol, to a concentration of 32,000 ppm (3.2% w/v). This was diluted in Schaedler Anaerobic Broth (SAB) to yield two stock triclosan solutions of concentrations: 320 ppm (0.032% w/v) and 64 ppm (0.0064% w/v).
200 μl of the 320 ppm triclosan stock solution was then added to the first and seventh well of row A on a standard 96-well microtitre plate. All remaining wells in this row were filled with 100% of sterile SAB. The contents of well 1 and the contents of well 7 were independently mixed by repeatedly sucking the contents up and down a pipette tip. 100 μl from well 1 was transferred to the second well of row A and 100 μl from well 7 was transferred to the eighth well of row A. This process was repeated along the row until the sixth and twelfth wells contained 200 μl. After mixing, 100 μl from wells 6 and 12 was discarded to waste. Each successive well in row A therefore contained a two-fold dilution of triclosan compared with the preceding well (i.e. 80 ppm in wells 2 and 8; 40 ppm in wells 3 and 9, etc.), resulting in wells 6 and 12 having a concentration of 5 ppm. A similar series of dilutions was repeated starting with the 64 ppm triclosan stock solution into row B on a microtitre plate. This gave a range of triclosan concentrations from 32 ppm to 1 ppm following the dilution process described. Finally, 100 μl of the pre-diluted stock inoculum culture was added to all wells, thus giving a final volume of 200 μl in each well. Wells 1 and 7 of row A therefore contained a final concentration of 160 ppm triclosan.
A blank plate was prepared for each of the two samples by repeating the process described above, except that 100 μl of SAB was added instead of bacterial culture. This plate was used as the control plate against which the test plate(s) could be read.
Test and control plates were sealed using autoclave tape and incubated for 48 hours anaerobically at 37° C.
A microtitre plate reader (Model MRX, Dynatech Laboratories) was preset to gently agitate the plates and mix the contents. The absorbance at 540 nm “A540” was used as a measure of turbidity resulting from bacterial growth. The control, un-inoculated plate for each set of samples was read first, and the plate reader then programmed to use the control readings to blank all other plate readings for the inoculated plates for the same set of test materials (i.e. removing turbidity and possible colour changes during incubation which are due to chemical interactions). Thus, the corrected readings generated were absorbances resulting from turbidity from bacterial growth. The MIC was taken as the lowest concentration of triclosan required to inhibit growth so that the change in absorbance during the incubation period was <0.2 A540. […]

Another assay relates to S. mutans. Description: Potential synergy of triclosan with flavour materials (growth at sub-MIC concentrations). Format: cell-based, Streptococcus mutans. Conditions: for Synergy Shown: flavour material with triclosan against S. mutans; for 50% MIC without triclosan: growth of S. mutans with flavour material at 50% of its MIC alone; for 50% MIC and 8 ppm triclosan: growth of S. mutans with flavour material at 50% of its MIC plus 8 ppm triclosan. The protocol:
This example describes a method for determining the potential synergy of triclosan with flavour materials against S. mutans.
A microtitre method using the procedure described below was employed.
Flavour materials were assessed at a final concentration of 50% of the MIC value determined according to Example 1 above, in combination with triclosan at 8 ppm, i.e. about 50% of the MIC value also determined as described in Example 1. Inhibition of growth by this combination of sub-MIC concentrations of flavour material and triclosan was taken to indicate antimicrobial synergy between the flavour material and triclosan.
100 μl of stock solution was added to the appropriate well of a standard 96-well microtitre plate. An equivalent volume of bacterial stock inoculum solution (prepared as in Example 1) was added giving the desired dilution in each well. A blank plate was prepared using the same process except that 100 μl of SAB was added instead of bacterial culture. The protocol for incubation, reading of results and interpretation was as described in Example 1.

Assay [1] relates to protease activity (arg-gingipain) of Porphyromonas gingivalis. Description: Protease enzyme assay (BAPNA substrate), synergy of flavour material with antimicrobial agent. Format: biochemical, Porphyromonas gingivalis W50. Conditions: compared with flavour material alone; for Classes of Synergy, increase in inhibition; Antimicrobial Agent Triclosan: flavour material 2500 ppm and 5000 ppm plus sub-MIC triclosan; for Classes of Synergy, increase in inhibition; Antimicrobial Agent Zinc Sulphate: flavour material 2500 ppm and 5000 ppm plus sub-MIC zinc sulphate. On the procedure: The following assay was used to investigate the inhibition of protease activity (arg-gingipain) of the micro-organism Porphyromonas gingivalis (implicated in gum disease) by a flavour material or mixture of flavour materials.
Fresh buffer was prepared immediately before beginning the assay in the following manner: 3.029 g of Tris Base (Sigma, Poole, UK), 394 mg of L-cysteine hydrochloride (Sigma, Poole, UK) and 367.5 mg of calcium chloride dihydrate (Sigma, Poole, UK) were dissolved in 150 ml deionised water. In order to allow for pH differences resulting from any variation in ambient temperature, the temperature of the buffer was taken. The pH of TRIS buffers varies with temperature i.e. Δ pH=−0.031/° C. This assay should be carried out at a temperature of 30° C., with the buffer having a pH of 8.0. Thus, if the measured temperature of the buffer is, for example, 22° C. (room temperature) the pH should be adjusted to 8.24 with 2M hydrochloric acid, in order to give the desired conditions i.e. pH=8.0 at 30° C. After adjusting the pH, the buffer was made up to 200 ml with deionised water and incubated in a water bath at 30° C. for approximately one hour to reach temperature equilibrium before commencing the assay.
The enzyme substrate BAPNA (DL-α-benzoyl-DL-arginyl-p-nitro-anilide) (Sigma) is the synthetic substrate for the protease enzyme produced by the bacterium Porphyromonas gingivalis. The substrate is degraded by enzymes which show specificity for cleaving adjacent to arginine residues. This cleavage yields a yellow nitro-aniline product, which can be readily detected spectrophotometrically at 405 nm. 10.87 mg of the BAPNA substrate was added to 0.5 ml of dimethylsulphoxide (DMSO) and thoroughly dissolved. 9.5 ml of deionised water was then added. The resulting solution was then mixed by vortex and incubated at 30° C. in a water bath for about one hour before commencing the assay to allow temperature equilibration.
Porphyromonas gingivalis W50 ATCC 53978 (American Type Culture Collection (ATCC), P.O. Box 1549, Manassas, Va. 20108, USA) (may also be obtained from Prof. Philip Marsh, Centre for Applied Microbiology and Research, Salisbury, Wiltshire, SP4 OJG, UK) was sub-cultured from frozen stock cultures onto Schaedler Anaerobic Agar (Oxoid, Basingstoke, UK), and supplemented with 5% v/v horse blood (E&O Laboratories, Bonnybridge, Scotland, FK4 2HH). The plates were incubated at 37° C. in an anaerobic cabinet (Don Whitley Scientific, Shipley, UK) for 3-5 days. Single colonies grown on these plates were then inoculated into 250 ml Schaedler Anaerobic Broth (SAB) contained in bottles with cotton wool stoppers. The broths were then incubated in an anaerobic cabinet and allowed to grow for 3-5 days. This generally yielded a culture with an absorbance at 540 nm (A540) between 0.2 and 0.4.
Into 1.5 ml disposable plastic cuvettes was added 0.7 ml of assay buffer, followed by 0.2 ml of BAPNA solution and 0.1 ml of bacterial culture. The cuvettes were capped and mixed, then placed in a Pye Unicam 8620 Spectrophotometer (Pye Unicam, Cambridge, UK). The increase in absorbance at 405 nm […] was recorded over a period of 3 minutes.
The percentage inhibition of protease by a given flavour/flavour material was determined by the formula: [formula]
The synergy between flavour/flavour material and an antimicrobial agent against the protease activity of Porphyromonas gingivalis was then determined in the following manner. Firstly, the MIC value of the antimicrobial agent required to cause any inhibition of protease activity was determined using the method generally described in Example 1 for the determination of the MIC value of triclosan. […] The dilution immediately lower than the MIC value was selected as the sub-IC concentration of antimicrobial agent. All flavour materials were tested at 2500 ppm and 5000 ppm.
The percentage inhibition of protease by the flavour material and antimicrobial agent was determined as described above.

The mark [2] stands for this setting: flavour material against S. mutans R9, 48 hours anaerobically at 37° C., read-out: MIC (ppm).

SMILES strings stand for the structures. ≈ marks a conversion by molar mass, not a printed value. Like-named read-outs stand apart in the source and are kept apart here.

What is called MIC is the lowest concentration found to suppress growth.

Take `CCCCCCCCCC=O` [Aldehyde C10, decanal]: the minimal inhibitory concentration (MIC) with Streptococcus mutans R9 (setting [2]) is 5000 µg/mL (≈ 32 mM). In the assay on S. mutans, the “Synergy Shown” value is reported as “Yes”; the “50% MIC without triclosan” value was “+”; the “50% MIC and 8 ppm triclosan” value was “−”.
In the case of `CCCCCCCCC=O` [Aldehyde C9, nonanal], in the assay on Streptococcus mutans R9 (setting [2]), the MIC amounted to 5000 µg/mL (≈ 35.2 mM). Besides, in the assay with S. mutans, the “Synergy Shown” value was “Yes”; the “50% MIC without triclosan” value is “+”; the “50% MIC and 8 ppm triclosan” value was “−”.
As for `CCCCCCCCCO` [Alcohol C9, nonanol], the MIC in the assay with Streptococcus mutans R9 (setting [2]) stood at 5000 µg/mL (≈ 34.7 mM). Besides, in the assay on S. mutans, the “Synergy Shown” value was “Yes”; the “50% MIC without triclosan” value was “+”; the “50% MIC and 8 ppm triclosan” value is recorded as “−”. In addition, in assay [1], the “Classes of Synergy, increase in inhibition; Antimicrobial Agent Triclosan” value is on record as “− (− = <15% increase in inhibition)” and the “Classes of Synergy, increase in inhibition; Antimicrobial Agent Zinc Sulphate” value was “+ (+ = >15% increase in inhibition)”.
`CC/C=C\CCO` [Cis-3-hexenol, cis-3-hexenol]: in assay [1], the “Classes of Synergy, increase in inhibition; Antimicrobial Agent Triclosan” value is reported as “− (− = <15% increase in inhibition)” and the “Classes of Synergy, increase in inhibition; Antimicrobial Agent Zinc Sulphate” value is “+ (+ = >15% increase in inhibition)”.
On the same counts, the results for `COC(=O)C=Cc1ccccc1` [Methyl Cinnamate, methyl cinnamate] are “+ (+ = >15% increase in inhibition)” and “− (− = <15% increase in inhibition)”.
With `Oc1cc(Cl)ccc1Oc1ccc(Cl)cc1Cl` [triclosan, 2′,4,4′-trichloro-2-hydroxy-diphenyl ether, reference compound], the MIC with Streptococcus mutans R9 (R9, 48 h, read-out: MIC for triclosan against S. mutans R9) was 10 to 16 µg/mL (≈ 0.0345 to 0.0553 mM).
With `C/C=C/c1ccc(OC)cc1` [Anethole Synthetic, anethole synthetic], in assay [1], the “Classes of Synergy, increase in inhibition; Antimicrobial Agent Triclosan” value is “− (− = <15% increase in inhibition)” and the “Classes of Synergy, increase in inhibition; Antimicrobial Agent Zinc Sulphate” value is given as “− (− = <15% increase in inhibition)”.
Consider `O=C(OCc1ccccc1)c1ccccc1` [Benzyl benzoate, benzyl benzoate], for which, in assay [1], the “Classes of Synergy, increase in inhibition; Antimicrobial Agent Triclosan” value is reported as “+ (+ = >15% increase in inhibition)” and the “Classes of Synergy, increase in inhibition; Antimicrobial Agent Zinc Sulphate” value is recorded as “− (− = <15% increase in inhibition)”.
Consider `CCCC(=O)OCc1ccccc1` [Benzyl Butyrate, benzyl butyrate], for which the “Classes of Synergy, increase in inhibition; Antimicrobial Agent Triclosan” value in assay [1] was “− (− = <15% increase in inhibition)”.
Consider `CCCCCCCCCCO` [Alcohol C10, decanol], for which, in the assay on Streptococcus mutans R9 (setting [2]), the MIC stood at 5000 µg/mL (≈ 31.6 mM). Also, in the assay on S. mutans, the “Synergy Shown” value is listed as “Yes”; the “50% MIC without triclosan” value is “+”; the “50% MIC and 8 ppm triclosan” value is reported as “−”. In addition, in assay [1], the “Classes of Synergy, increase in inhibition; Antimicrobial Agent Triclosan” value is “+ (+ = >15% increase in inhibition)” and the “Classes of Synergy, increase in inhibition; Antimicrobial Agent Zinc Sulphate” value is listed as “+ (+ = >15% increase in inhibition)”.
For `O=C/C=C/c1ccccc1` [Cinnamic Aldehyde Extra, cinnamic aldehyde], the MIC in the assay on Streptococcus mutans R9 (R9, 48 h) stood at 625 µg/mL (≈ 4.73 mM). Further, in the assay with S. mutans, the “Synergy Shown” value is given as “Yes”; the “50% MIC without triclosan” value is reported as “+”; the “50% MIC and 8 ppm triclosan” value is on record as “−”.
